#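 Five compound concentrations were applied to cells in 96-well plates for 48 hours; endpoints were derived by simple linear interpolation of the resulting dose-response curve. TGI marks complete inhibition of growth.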
# Legend:
# Experiment in all cases: NCI tumour cell line growth inhibition, 48 h
# 786-0 renal = system: 786-0 renal
# A498 renal = system: A498 renal
# A549 NSCLC = system: A549 NSCLC
# ACHN renal = system: ACHN renal
# BT-549 breast = system: BT-549 breast
# CAKI-1 renal = system: CAKI-1 renal
# CCRF-CEM leukemia = system: CCRF-CEM leukemia
# COLO 205 colon = system: COLO 205 colon
# DU-145 prostate = system: DU-145 prostate
# EKVX NSCLC = system: EKVX NSCLC
# HCC-2998 colon = system: HCC-2998 colon
# HCT-116 colon = system: HCT-116 colon
# HCT-15 colon = system: HCT-15 colon
# HOP-92 NSCLC = system: HOP-92 NSCLC
# HS 578T breast = system: HS 578T breast
# HT29 colon = system: HT29 colon
# IGROV1 ovarian = system: IGROV1 ovarian
# K-562 leukemia = system: K-562 leukemia
# KM12 colon = system: KM12 colon
# LOX IMVI melanoma = system: LOX IMVI melanoma
# M14 melanoma = system: M14 melanoma
# MALME-3M melanoma = system: MALME-3M melanoma
# MCF7 breast = system: MCF7 breast
# MDA-MB-231 breast = system: MDA-MB-231 breast
# MDA-MB-435 = system: MDA-MB-435
# MDA-N = system: MDA-N
# MOLT-4 leukemia = system: MOLT-4 leukemia
# NCI-H226 lung = system: NCI-H226 lung
# NCI-H23 lung = system: NCI-H23 lung
# NCI-H460 lung = system: NCI-H460 lung
# NCI-H522 lung = system: NCI-H522 lung
# NCI/ADR-RES ovarian = system: NCI/ADR-RES ovarian
# OVCAR-3 ovarian = system: OVCAR-3 ovarian
# OVCAR-4 ovarian = system: OVCAR-4 ovarian
# OVCAR-5 ovarian = system: OVCAR-5 ovarian
# OVCAR-8 ovarian = system: OVCAR-8 ovarian
# PC-3 prostate = system: PC-3 prostate
# RPMI-8226 leukemia = system: RPMI-8226 leukemia
# RXF 393 renal = system: RXF 393 renal
# SF-268 CNS = system: SF-268 CNS
# SF-295 CNS = system: SF-295 CNS
# SF-539 CNS = system: SF-539 CNS
# SK-MEL-2 melanoma = system: SK-MEL-2 melanoma
# SK-MEL-28 melanoma = system: SK-MEL-28 melanoma
# SK-MEL-5 melanoma = system: SK-MEL-5 melanoma
# SK-OV-3 ovarian = system: SK-OV-3 ovarian
# SN12C renal = system: SN12C renal
# SNB-19 CNS = system: SNB-19 CNS
# SNB-75 CNS = system: SNB-75 CNS
# SW-620 colon = system: SW-620 colon
# T-47D breast = system: T-47D breast
# TK-10 renal = system: TK-10 renal
# U251 CNS = system: U251 CNS
# UACC-257 melanoma = system: UACC-257 melanoma
# UACC-62 melanoma = system: UACC-62 melanoma
# UO-31 renal = system: UO-31 renal
# HL-60(TB) leukemia = system: HL-60(TB) leukemia
# HOP-62 NSCLC = system: HOP-62 NSCLC
# SR leukemia = system: SR leukemia
compound,measurement,setting,value
O=c1cc(N2CCN(c3cc(=O)n4ccccc4n3)CC2)oc2ccccc12,TGI,786-0 renal,> 100 µM
same,TGI,A498 renal,> 100 µM
same,TGI,A549 NSCLC,> 87.8 µM
same,TGI,ACHN renal,> 100 µM
same,TGI,BT-549 breast,> 100 µM
same,TGI,CAKI-1 renal,> 100 µM
same,TGI,CCRF-CEM leukemia,> 100 µM
same,TGI,COLO 205 colon,> 100 µM
same,TGI,DU-145 prostate,> 100 µM
same,TGI,EKVX NSCLC,> 31.6 µM
same,TGI,HCC-2998 colon,> 100 µM
same,TGI,HCT-116 colon,> 100 µM
same,TGI,HCT-15 colon,> 100 µM
same,TGI,HOP-92 NSCLC,> 100 µM
same,TGI,HS 578T breast,> 80.2 µM
same,TGI,HT29 colon,> 100 µM
same,TGI,IGROV1 ovarian,> 100 µM
same,TGI,K-562 leukemia,> 100 µM
same,TGI,KM12 colon,> 68.5 µM
same,TGI,LOX IMVI melanoma,> 100 µM
same,TGI,M14 melanoma,> 100 µM
same,TGI,MALME-3M melanoma,> 100 µM
same,TGI,MCF7 breast,> 100 µM
same,TGI,MDA-MB-231 breast,> 100 µM
same,TGI,MDA-MB-435,> 100 µM
same,TGI,MDA-N,> 100 µM
same,TGI,MOLT-4 leukemia,> 100 µM
same,TGI,NCI-H226 lung,> 100 µM
same,TGI,NCI-H23 lung,> 100 µM
same,TGI,NCI-H460 lung,> 100 µM
same,TGI,NCI-H522 lung,> 100 µM
same,TGI,NCI/ADR-RES ovarian,> 100 µM
same,TGI,OVCAR-3 ovarian,> 100 µM
same,TGI,OVCAR-4 ovarian,> 100 µM
same,TGI,OVCAR-5 ovarian,> 100 µM
same,TGI,OVCAR-8 ovarian,96.9 µM
same,TGI,PC-3 prostate,> 100 µM
same,TGI,RPMI-8226 leukemia,90.5 µM
same,TGI,RXF 393 renal,> 100 µM
same,TGI,SF-268 CNS,> 65.3 µM
same,TGI,SF-295 CNS,> 100 µM
same,TGI,SF-539 CNS,> 100 µM
same,TGI,SK-MEL-2 melanoma,> 100 µM
same,TGI,SK-MEL-28 melanoma,> 100 µM
same,TGI,SK-MEL-5 melanoma,> 100 µM
same,TGI,SK-OV-3 ovarian,> 100 µM
same,TGI,SN12C renal,> 100 µM
same,TGI,SNB-19 CNS,> 100 µM
same,TGI,SNB-75 CNS,> 54.3 µM
same,TGI,SW-620 colon,> 100 µM
same,TGI,T-47D breast,> 100 µM
same,TGI,TK-10 renal,> 100 µM
same,TGI,U251 CNS,> 100 µM
same,TGI,UACC-257 melanoma,> 71.8 µM
same,TGI,UACC-62 melanoma,> 100 µM
same,TGI,UO-31 renal,> 70.9 µM
O=C(OCCN=c1c2ccccc2ccc2ccccc12)c1ccc([N+](=O)[O-])cc1,TGI,786-0 renal,> 100 µM
same,TGI,A549 NSCLC,> 100 µM
same,TGI,ACHN renal,> 100 µM
same,TGI,BT-549 breast,> 100 µM
same,TGI,CAKI-1 renal,> 100 µM
same,TGI,CCRF-CEM leukemia,> 100 µM
same,TGI,COLO 205 colon,> 100 µM
same,TGI,DU-145 prostate,> 100 µM
same,TGI,EKVX NSCLC,> 100 µM
same,TGI,HCC-2998 colon,> 100 µM
same,TGI,HCT-116 colon,> 100 µM
same,TGI,HCT-15 colon,> 100 µM
same,TGI,HL-60(TB) leukemia,> 100 µM
same,TGI,HOP-62 NSCLC,> 100 µM
same,TGI,HOP-92 NSCLC,> 100 µM
same,TGI,HS 578T breast,> 100 µM
same,TGI,HT29 colon,> 100 µM
same,TGI,IGROV1 ovarian,> 100 µM
same,TGI,K-562 leukemia,> 100 µM
same,TGI,KM12 colon,> 100 µM
same,TGI,LOX IMVI melanoma,> 100 µM
same,TGI,M14 melanoma,> 100 µM
same,TGI,MALME-3M melanoma,> 100 µM
same,TGI,MCF7 breast,> 100 µM
same,TGI,MDA-MB-231 breast,> 100 µM
same,TGI,MDA-MB-435,> 100 µM
same,TGI,MDA-N,> 100 µM
same,TGI,MOLT-4 leukemia,> 100 µM
same,TGI,NCI-H226 lung,> 100 µM
same,TGI,NCI-H23 lung,> 100 µM
same,TGI,NCI-H460 lung,> 100 µM
same,TGI,NCI/ADR-RES ovarian,> 100 µM
same,TGI,OVCAR-3 ovarian,> 100 µM
same,TGI,OVCAR-4 ovarian,> 100 µM
same,TGI,OVCAR-5 ovarian,> 100 µM
same,TGI,OVCAR-8 ovarian,> 100 µM
same,TGI,PC-3 prostate,> 100 µM
same,TGI,RPMI-8226 leukemia,> 100 µM
same,TGI,RXF 393 renal,> 100 µM
same,TGI,SF-268 CNS,> 100 µM
same,TGI,SF-295 CNS,> 100 µM
same,TGI,SF-539 CNS,> 100 µM
same,TGI,SK-MEL-2 melanoma,> 100 µM
same,TGI,SK-MEL-28 melanoma,> 100 µM
same,TGI,SK-MEL-5 melanoma,> 100 µM
same,TGI,SK-OV-3 ovarian,> 100 µM
same,TGI,SN12C renal,> 100 µM
same,TGI,SNB-19 CNS,> 100 µM
same,TGI,SNB-75 CNS,> 100 µM
same,TGI,SR leukemia,> 100 µM
same,TGI,SW-620 colon,> 100 µM
same,TGI,T-47D breast,> 100 µM
same,TGI,TK-10 renal,> 100 µM
same,TGI,U251 CNS,> 100 µM
same,TGI,UACC-257 melanoma,> 100 µM
same,TGI,UACC-62 melanoma,> 100 µM
same,TGI,UO-31 renal,> 100 µM

# Reference: PubChem BioAssay (NCI)
